Results on four compounds are retold here after PMC9138090, “Study on the Neuroprotective, Radical-Scavenging and MAO-B Inhibiting Properties of New Benzimidazole Arylhydrazones as Potential Multi-Target Drugs for the Treatment of Parkinson’s Disease” (Antioxidants, 2022).

For data set [1], the system named is rat brain synaptosomes. Briefly: 6-OHDA-induced neurotoxicity, synaptosomal viability. The class given is cell-based. The settings on record: for protective effect in 6-OHDA model (in words): 10 µM, synaptosomal viability and GSH level. How it is done:
(§1) Synaptosomes were prepared from brains of adult male Wistar rats. The brains were homogenized in 10 volume of cold buffer 1, containing 5 mM HEPES and 0.32 M sucrose (pH = 7.4). The brain homogenate was centrifuged twice at 1000× g for 5 min at 4 °C. The supernatant was collected and centrifuged 3 times at 10,000× g for 20 min at 4 °C. The pellet was re-suspended in ice-cold buffer 1. The synaptosomes were isolated by using Percoll reagent to prepare the gradient. Synaptosomes were re-suspended and incubated in buffer 2, containing 290 mM NaCl, 0.95 mM MgCl2 × 6H2O, 10 mM KCl, 2.4 mM CaCl2 × H2O, 2.1 mM NaH2PO4, 44 mM HEPES, and 13 mM D-glucose. Incubations were performed in a 5% CO2 + 95% O2 atmosphere. The content of synaptosomal protein was determined according to the method of Lowry et al. using bovine serum albumin as a standard.
Synaptosomal viability was measured by (3-(4,5)-dimethylthiazol-2-yl)-2,5-diphenyl tetrazolium bromide)-test, described by Mungarro-Menchaca et al. The synaptosomes were incubated with the compounds and then treated with (3-(4,5)-dimethylthiazol-2-yl)-2,5-diphenyl tetrazolium bromide) solution (0.5 mg/mL) for 1 h at 37 °C. After incubation they were centrifuged at 15,000× g for 1 min. The formed formazan crystals were dissolved in DMSO (Dimethyl sulfoxide). The extinction was measured spectrophotometrically at λ = 580 nm.
(§2) The metabolism and oxidation of dopamine cause reactive oxygen radicals and reactive quinones to be produced, which could lead to neurotoxicity and neurodegeneration. The synaptosomes were incubated with the compounds (10 µM) for 30 min and then 6-hydroxydopamnine (150 mmol/L) was used to induce neurotoxicity. […] After 1 h, they were centrifuged on a microcentrifuge for 1 min at 15,000 rpm. The precipitates were gently mixed with buffer B and glucose and centrifuged for a second time at 15,000 rpm for 1 min. After the second wash, buffer B and glucose were added to the precipitates.
(§3) In the presented experiments, an in vitro assessment of the possible antioxidant and neuroprotective effects of the newly synthetized compounds was performed in a model of 6-OHDA induced toxicity in rat brain synaptosomes. 6-OHDA is a neurotoxicant that structurally resembles dopamine and can be used in different in vivo and in vitro models for neurotoxicity. This model resembles the histological, biochemical, and physiological characteristics of neurodegenerative diseases such as Parkinson’s and Alzheimer’s disease. […] However, their uptake into brain synaptosomes is similar among primates and rodents and they are suitable in vitro models for PD. The main mechanism of 6-OHDA toxicity includes induction of oxidative stress. It undergoes auto-oxidation or metabolic degradation to p-quinone and produces hydrogen peroxide, superoxide, and hydroxyl radicals. The process causes lipid peroxidation, protein oxidation, and DNA oxidation and finally results in oxidative stress and mitochondrial dysfunction. Rat brain synaptosomes were pretreated with compounds 3e, 3h, 3i, 3m, melatonin, and rasagiline (10 μM); after that, the samples were subjected to 6-OHDA (150 mmol/L, 1 h). The protective effects were evaluated by measurement of synaptosomal viability (MTT-test) and GSH levels (Figure 3).

The nature of data set [2]: Fe(II)-induced degradation of 2-deoxyribose (TBA-RS). The conditions noted are these: 80 µmol/L, 2-deoxyribose 0.5 mmol/L. The procedure: (§4) The classical method of determining the TBA-reactive substances at 532 nm as described by Asakawa and Matsushita has been used. Two groups of measurement compositions named controls and samples were prepared in phosphate buffer (K2HPO4/KH2PO4, pH 7.4) for each of the used substrates. Both of them contained equivalent concentrations of lecithin (1 mg/mL) or 2-deoxyribose (0.5 mmol/L) and FeCl2 (0.1 mmol/L). In the controls, the tested hydrazones have been omitted and in the samples the effect of the newly designed compounds at the concentrations indicated below the figures has been determined. The obtained samples were incubated at 37 °C for 30 min. The reaction was stopped, and after adding 0.5 mL 2.8% trichloroacetic acid and 0.5 mL of thiobarbituric acid, the samples were heated in boiling water for 20 min. The lecithin containing samples were centrifuged at 3000 rpm for 20 min and the supernatant was aspired out. The results have been presented as a percentage of the control sample, treated only with ferrous iron where we expected maximum oxidative damage under the described conditions.

In the next data set the test system is SH-SY5Y cells. In words: H2O2-induced oxidative stress model in SH-SY5Y cells. Format: cell-based, human. The settings on record: for cell viability protection vs. H2O2-treatment: 50 µM, 90 min pre-incubation, H2O2 1 mM 15 min; for protective effect in H2O2-induced oxidative stress model (in words): 1, 10, 50 µM. How it is done: SH-SY5Y cells were seeded in 96-well plates at a density of 3.5 × 10^4/well and allowed to attach at the wells’ bottom overnight. […] Afterwards, the SH-SY5Y cells were washed with phosphate-buffered saline (PBS) to remove the extracellular amount of the test compounds. […] Then, the contents of all wells were changed with culture medium. After 24 h, the amount of attached viable cells was evaluated by MTT assay. […] Rasagiline and melatonin (Sigma-Aldrich Chemie GmbH) were used as reference compounds because of their well-established neuroprotective activity. […] The toxic mechanisms of hydrogen peroxide include the generation of reactive hydroxyl radicals and formation of products which could damage cellular lipids, proteins and DNA. […] For comparison, the effects of two compounds with well established antioxidant activity—rasagiline and melatonin—were also evaluated.

Data set [3] concerns rat brain synaptosomes. In words: 6-OHDA-induced neurotoxicity, GSH level. The class given is cell-based. The conditions noted are these: 10 µM pretreatment, 6-OHDA 150 mmol/L 1 h. The procedure:
as §1, §2, §3

The nature of data set [4]: Fe(II)-induced oxidative damage of lecithin (TBA-RS). The conditions noted are these: 90 µmol/L. The procedure: as §4
Data set [5] in a line: Superoxide scavenging, non-enzymatic KO2/NBT assay. The conditions noted are these: 100 µM; text says enzymatic assay. The procedure:
Superoxide radicals scavenging activity (non-enzymatic assay): 1 mL PBS, pH 7.4 contains 0.04 mmol/L NBT and the tested hydrazone in the concentrations indicated on the figures. No drug was added to the control samples. One minute after the addition of 20 μL of KO2 dissolved in DMSO, the absorbance at 560 nm was measured.
The results from both assays have been presented as a percentage of the control sample.
The potency of the compounds selected as the most promising from the cell model systems and hMAOB inhibitory studies was estimated against enzymatically (xanthine/XO system) and non-enzymatically (KO2/NBT) produced superoxide radicals (Figure 7). In the xanthine-xanthine oxidase system the generation of O2^−^● is a result of an enzymatic reaction. The molecular mechanism of action of the XO enzyme is associated with catalysation of the reaction of oxidation of hypoxanthine and xanthine and generation of uric acid. During the process of reoxidation of the enzyme, the molecular oxygen acts as an electron acceptor and the formation of physiologically important ROS, such as the superoxide radical (O2^−^●) and hydrogen peroxide (H2O2), has been observed. In the potassium superoxide-containing systems, superoxide radical generation is due to the direct addition of the KO2 to the water sample solution. […]

Molecules are shown by their SMILES. Entries after “also recorded” stand apart in the source; their conditions may differ.

For `COc1ccc(C=NNC(=O)CCn2c(=S)n(CCC(=O)NN=Cc3ccc(OC)cc3O)c3ccccc32)c(O)c1` [3m, 3,3′-(2-Thioxo-1H-benzo[d]imidazole-1,3(2H)-diyl)bis(N′-(2-hydroxy-4-methoxybenzylidene)propanehydrazide)], the “protective effect in 6-OHDA model (in words)” value in the data set with rat brain synaptosomes [1] is recorded as “less pronounced protective effects”.
With `O=C(CCn1c(=S)n(CCC(=O)NN=Cc2cccc(O)c2O)c2ccccc21)NN=Cc1cccc(O)c1O` [3h, 3,3′-(2-Thioxo-1H-benzo[d]imidazole-1,3(2H)-diyl)bis(N′-(2,3-dihydroxybenzylidene)propanehydrazide)], the “antioxidant effect on Fe(II) induced deoxyribose degradation (in words)” value in data set [2] was “stronger than the reference melatonin and similar to Trolox; also recorded: better protection effect than the reference melatonin, and a similar effect to the antioxidant Trolox”. In addition, in the data set with SH-SY5Y cells, the “cell viability protection vs. H2O2-treatment” value is on record as 79%; the “protective effect in H2O2-induced oxidative stress model (in words)” value is “even more pronounced than those of melatonin and rasagiline”. For the same compound, the “restoration of GSH level vs. 6-OHDA treatment” value in the data set on rat brain synaptosomes [3] was 62%. The “increase of synaptosomal viability vs. 6-OHDA treatment” value in the data set with rat brain synaptosomes [1] (10 µM pretreatment, 6-OHDA 1 h) turned out to be 71%. The “sample/control absorbance ratio (% of the control), lecithin peroxidation” value in data set [4] (lecithin 1 mg/mL, FeCl2 0.1 mmol/L) is “around 40%”.
Regarding `O=C(CCn1c(=S)n(CCC(=O)NN=Cc2ccccc2O)c2ccccc21)NN=Cc1ccccc1O` [3e, 3,3′-(2-Thioxo-1H-benzo[d]imidazole-1,3(2H)-diyl)bis(N′-(2-hydroxybenzylidene)propanehydrazide)], in data set [5], the “increase of absorbance compared to the controls” value is on record as 1.5 times. For the same compound, the “protective effect in 6-OHDA model (in words)” value in the data set with rat brain synaptosomes [1] was “less pronounced protective effects”.
Regarding `O=C(CCn1c(=S)n(CCC(=O)NN=Cc2ccc(O)cc2O)c2ccccc21)NN=Cc1ccc(O)cc1O` [3i, 3,3′-(2-Thioxo-1H-benzo[d]imidazole-1,3(2H)-diyl)bis(N′-(2,4-dihydroxybenzylidene)propanehydrazide)], the “increase of absorbance compared to the controls” value in data set [5] is given as 2.5 times. In the data set on SH-SY5Y cells, the “cell viability protection vs. H2O2-treatment” value worked out at 80%; the “protective effect in H2O2-induced oxidative stress model (in words)” value was “even more pronounced than those of melatonin and rasagiline”. Further, in the data set with rat brain synaptosomes [1], the “protective effect in 6-OHDA model (in words)” value is given as “less pronounced protective effects”. Further, the “lecithin peroxidation effect compared with 3a (in words)” value in data set [4] is recorded as “statistically identical effect to 3a”.
